Results on four compounds are retold here after US11820792B2, “Cancer treatment” (Imperial College Innovations Limited, priority 2017, dated 2023).

Where only a bound is given, the exact number is not on record here.

In one series the test system is UW228 cells. The series can be described thus: TNFα and cisplatin combination, sulphorodamine B viability. It counts as cell-based, human. Conditions: stably transduced UW228, 1 μM and 5 μM cisplatin. On the procedure: Cell viability was measured at different time points using sulphorodamine B assay. Stably transduced UW228 were treated with 1 μM and 5 μM cisplatin chemotherapy 48 hrs after seeding the cells. Data are represented as mean±SEM.***P≤0.001.

For a further series, the system named is DIPG. To be noted: 2 children, both died after treatment; cited from earlier work.
Series [1] concerns recurrent human malignant glioma. To be noted: cited from earlier work.
The conditions of series [2]: systemic administration, clinical trials; cited from earlier work.

As for `N.N.[Cl][Pt][Cl]` [cisplatin], in the series with UW228 cells, the “effect of combination on tmTNFα cytokine gene therapy (cell viability)” value is “increases”.

On to `CC[C@@]1(O)C(=O)OCc2c1cc1n(c2=O)Cc2cc3c(CN(C)C)c(O)ccc3nc2-1` [topotecan], for which the tumour response result in the series on DIPG is recorded as “reduction in tumour size”. “IL-4: Interleukin-4 protein injected intratumorally by convection enhanced delivery”: the “neurotoxicity to normal brain” value in series [1] (histology, any patient) is on record as “No histological evidence of neurotoxicity”. Besides, the “patients showing glioma necrosis” value in series [1] (intratumoral, CED) is given as “Six of nine”. Further, the “disease free time after the procedure” value in series [1] (one patient) is above 18 months. Further, in series [1] (treated patients), the systemic toxicity entry was “no drug-related systemic toxicity”. For the compound “rhIL-15: Recombinant human IL-15 cytokine given systemically in clinical trials”, the plasma half-life in series [2] is listed as below 1 h.
